The nature of series [1]: Cell viability assay (AlamarBlue). The format is cell-based. The conditions noted are these: human, HepAD38 cells in the presence of 0.3 μg/ml tetracycline, six days incubation. As to the method: Using the AlamarBlue viability assay cytotoxicity was evaluated in HepAD38 cells in the presence of 0.3 μg/ml tetracycline, which blocks the expression of the HBV genome. Assay condition and plate layout were in analogy to the anti-HBV assay, however other controls were used. On each assay plate six wells containing untreated HepAD38 cells were used as the 100% viability control, and six wells filled with assay medium only were used as 0% viability control. In addition, a geometric concentration series of cycloheximide starting at 60 μM final assay concentration was used as positive control in each experiment. After six days incubation period Alamar Blue Presto cell viability reagent (ThermoFisher, Dreieich) was added in 1/11 dilution to each well of the assay plate. After an incubation for 30 to 45 min at 37° C. the fluorescence signal, which is proportional to the number of living cells, was read using a Tecan Spectrafluor Plus plate reader with an excitation filter 550 nm and emission filter 595 nm, respectively. […] Mean EC50 and CC50 values were used to calculate the selectivity index (SI=CC50/EC50) for each test compound.

A further series relates to HBV. The experiment in a line: Determination of HBV DNA from the supernatants of HepAD38 cells (anti-HBV activity). The conditions noted are these: Hepatitis B virus, HePAD38, 144 h, read-out: Cell Activity.

A value given as a limit tells only on which side of the number the result lay.

By CC50 is commonly meant the concentration at which the toxic effect on the cells reaches its halfway point.

For the compound `COCC1(N(C)C(=O)c2cnn3c2CN(C(=O)Nc2ccc(F)c(Cl)c2)C(C)C3)CC1` (stereo not shown) [Example 1, N5-(3-chloro-4-fluorophenyl)-N3-[1-(methoxymethyl)cyclopropyl]-N3,6-dimethyl-4H,5H,6H,7H-pyrazolo[1,5-a]pyrazine-3,5-dicarboxamide], the CC50 at 6 days in series [1] was more than 10 µM. Moreover, the EC50 with HBV was less than 1 µM.
For `CC(C)OCC1(N(C)C(=O)c2cnn3c2CN(C(=O)Nc2ccc(F)c(Cl)c2)CC3)CC1` [Example 2, N5-(3-chloro-4-fluorophenyl)-N3-methyl-N3-{1-[(propan-2-yloxy)methyl]cyclopropyl}-4H,5H,6H,7H-pyrazolo[1,5-a]pyrazine-3,5-dicarboxamide] the same measures were more than 10 µM and less than 1 µM.
For `CCOCC1(N(C)C(=O)c2cnn3c2CN(C(=O)Nc2ccc(F)c(Cl)c2)CC3)CC1` [Example 3, N5-(3-chloro-4-fluorophenyl)-N3-[1-(ethoxymethyl)cyclopropyl]-N3-methyl-4H,5H,6H,7H-pyrazolo[1,5-a]pyrazine-3,5-dicarboxamide] the same measures were more than 10 µM and less than 1 µM.
In the case of `CN(C(=O)c1cnn2c1CN(C(=O)Nc1ccc(F)c(Cl)c1)CC2)C1(COC(F)F)CC1` [Example 4, N5-(3-chloro-4-fluorophenyl)-N3-{1-[(difluoromethoxy)methyl]cyclopropyl}-N3-methyl-4H,5H,6H,7H-pyrazolo[1,5-a]pyrazine-3,5-dicarboxamide], the 50% cytotoxic concentration (CC50) at 6 days in series [1] was more than 10 µM. For the same compound, the EC50 with HBV was less than 1 µM.
With `O=C(Nc1ccc(F)c(Cl)c1)N1CCn2ncc(C(=O)N3CC(F)(F)CC34CC4)c2C1` [Example 5, N-(3-chloro-4-fluorophenyl)-3-{6,6-difluoro-4-azaspiro[2.4]heptane-4-carbonyl}-4H,5H,6H,7H-pyrazolo[1,5-a]pyrazine-5-carboxamide], the half-maximal cytotoxic concentration (CC50) at 6 days in series [1] was more than 10 µM. In addition, the EC50 in the series with HBV was less than 1 µM.
For `CC1Cn2ncc(C(=O)N(C)C3(COC(F)F)CC3)c2CN1C(=O)Nc1ccc(F)c(Cl)c1` (stereo not shown) [Example 6, N5-(3-chloro-4-fluorophenyl)-N3-{1-[(difluoromethoxy)methyl]cyclopropyl}-N3,6-dimethyl-4H,5H,6H,7H-pyrazolo[1,5-a]pyrazine-3,5-dicarboxamide] the same measures were more than 10 µM and less than 1 µM.
For `CN(C(=O)c1cnn2c1CN(C(=O)Nc1ccc(F)c(Cl)c1)CC2)C1(c2ccncc2)CC1` [Example 7, N5-(3-chloro-4-fluorophenyl)-N3-methyl-N3-[1-(pyridin-4-yl)cyclopropyl]-4H,5H,6H,7H-pyrazolo[1,5-a]pyrazine-3,5-dicarboxamide] the same measures were more than 10 µM and less than 1 µM.
For `CN(C(=O)c1cnn2c1CN(C(=O)Nc1ccc(F)c(Cl)c1)CC2)C1(c2ncccn2)CC1` [Example 8, N5-(3-chloro-4-fluorophenyl)-N3-methyl-N3-[1-(pyrimidin-2-yl)cyclopropyl]-4H,5H,6H,7H-pyrazolo[1,5-a]pyrazine-3,5-dicarboxamide] the same measures were more than 10 µM and less than 1 µM.
Consider `CN(C(=O)c1cnn2c1CN(C(=O)Nc1ccc(F)c(Cl)c1)CC2)C1(CO)CC1` [Example 9, N5-(3-chloro-4-fluorophenyl)-N3-[1-(hydroxymethyl)cyclopropyl]-N3-methyl-4H,5H,6H,7H-pyrazolo[1,5-a]pyrazine-3,5-dicarboxamide], for which the CC50 at 6 days in series [1] was more than 10 µM. Further, the EC50 with HBV was less than 1 µM.
For `O=C(Nc1ccc(F)c(Cl)c1)N1CCn2ncc(C(=O)N(CCO)C3(CO)CC3)c2C1` [Example 10, N5-(3-chloro-4-fluorophenyl)-N3-(2-hydroxyethyl)-N3-[1-(hydroxymethyl)cyclopropyl]-4H,5H,6H,7H-pyrazol [1,5-a]pyrazine-3,5-dicarboxamide] the same measures were more than 10 µM and less than 1 µM.
With `O=C(Nc1ccc(F)c(Cl)c1)N1CCn2ncc(C(=O)N3CCCOCC34CC4)c2C1` [Example 11, N-(3-chloro-4-fluorophenyl) -3-{8-oxa-4-azaspiro[2.6]nonane-4-carbonyl}-4H,5H,6H,7H-pyrazolo[1,5-a]pyrazine-5-carboxamide], in series [1], the 50% cytotoxic concentration (CC50) at 6 days was more than 10 µM. The EC50 in the series with HBV was less than 1 µM.
For `O=C(Nc1ccc(F)c(Cl)c1)N1CCn2ncc(C(=O)N3CCOCCC34CC4)c2C1` [Example 12, N-(3-chloro-4-fluorophenyl)-3-{7-oxa-4-azaspiro[2.6]nonane-4-carbonyl}-4H,5H,6H,7H-pyrazolo[1,5-a]pyrazine-5-carboxamide] the same measures were more than 10 µM and less than 1 µM.
Turning to `CN(C(=O)c1cnn2c1CN(C(=O)Nc1ccc(F)c(Cl)c1)CC2)C1(CNCC(F)(F)F)CC1` [Example 13, N5-(3-chloro-4-fluorophenyl)-N3-methyl-N3-(1-{[(2,2,2-trifluoroethyl)amino]methyl}cyclopropyl)-4H,5H,6H,7H-pyrazolo[1,5-a]pyrazine-3,5-dicarboxamide], the CC50 at 6 days in series [1] is more than 10 µM. Further, the EC50 in the series with HBV was less than 1 µM.
For `CN(C(=O)c1cnn2c1CN(C(=O)Nc1ccc(F)c(Cl)c1)CC2)C1(CCOC(F)F)CCC1` [Example 14, N5-(3-chloro-4-fluorophenyl)-N3-{1-[2-(difluoromethoxy)ethyl]cyclobutyl}-N3-methyl-4H,5H,6H,7H-pyrazolo[1,5-a]pyrazine-3,5-dicarboxamide] the same measures were more than 10 µM and less than 1 µM.
For `CN(C(=O)c1cnn2c1CN(C(=O)Nc1ccc(F)c(Cl)c1)CC2)C1(CCOC(F)F)CCCC1` [Example 15, N5-(3-chloro-4-fluorophenyl) -N3-{1-[2-(difluoromethoxy)ethyl]cyclopentyl}-N3-methyl-4H,5H,6H,7H -pyrazolo [1,5-a]pyrazine-3,5-dicarboxamide] the same measures were more than 10 µM and less than 1 µM.
As for `CN(C(=O)c1cnn2c1CN(C(=O)Nc1ccc(F)c(Cl)c1)CC2)C1(CCOC(F)F)CCOCC1` [Example 16, N5-(3-chloro-4-fluorophenyl)-N3-{4-[2-(difluoromethoxy)ethyl]oxan-4-yl}-N3-methyl-4H,5H,6H,7H-pyrazolo[1,5-a]pyrazine-3,5-dicarboxamide], the 50% cytotoxic concentration (CC50) at 6 days in series [1] is more than 10 µM. The EC50 in the series with HBV is less than 1 µM.
For `CC1Cn2ncc(C(=O)N(C)C3CC3)c2CN1C(=O)Nc1ccc(F)c(Cl)c1` (stereo not shown) [Example 17, N5-(3-chloro-4-fluorophenyl)-N3-cyclopropyl-N3,6-dimethyl-4H,5H,6H,7H -pyrazolo[1,5-a]pyrazine-3,5-dicarboxamide] the same measures were more than 10 µM and less than 1 µM.
